# Assay results as given in patent publication US7691575B2, “Immunomodulatory compositions” (Academia Sinica, priority 2005, dated 2010).
# Test system: human IFN γ promoter
# Assay: IFN γ promoter reporter assay (dual luciferase, pIFN γ-Luc/pRL-TK) in transfected Jurkat cells
# Type: cell-based
# Protocol: Jurkat cells were transfected with pIFN γ-Luc and pRL-TK, or pIL-2 and pRL-TK, plasmid DNA constructs using electroporation and then treated with different plant crude extracts, which were prepared using boiling water. The fold induction was expressed in arbitrary units as the ratio of firefly luciferase activity (encoded by pIFN γ-Luc) to that of Renilla luciferase (pRL-TK).
# A 615 base pair (bp) DNA fragment containing the human IFN γ promoter region from bp −487 to +128 (SEQ ID NO:1) was amplifed by polymerase chain reaction (PCR) using the specific primers (5′-[…]-3′ (SEQ ID NO:3) and 5′-[…]-3′ (SEQ ID NO:4))and human genomic DNA, isolated from blood, as a template. […]
# Firefly and Renilla luciferase activities were measured in cell lysates made from transfected T-cells that were exposed to a plant extract or phytocompound, or underwent negative control treatment. […] The protein concentration in each lysate was determined using a Bradford reagent protein assay (Bio-Rad, Calif.).
# Samples of ten micrograms of cell lysate protein were subjected to a dual luciferase reporter assay according to the manufacturer's instructions (Promega, Wis.). Firefly and Renilla luciferase activities were determined in each sample with a luminometer. […] The IFN γ or IL-2 promoter activity for each sample was calculated as a ratio of firefly luciferase to Renilla luciferase-dependent luminescence.
Structure (SMILES),IFN γ promoter activity (concentration not given),"IFN γ promoter activity (100 μg/mL, relative to untreated cells, p<0.001)"
"O=C(/C=C/c1ccc(O)c(O)c1)O[C@@H]1[C@H](O)C[C@@](O)(C(=O)O)C[C@H]1OC(=O)/C=C/c1ccc(O)c(O)c1 [4,5-di-O-caffeoylquinic acid]",did not induce a significant increase,–
"COc1ccc(-c2oc3cc(O[C@@H]4O[C@H](CO)[C@@H](O)[C@H](O)[C@H]4O)c(OC)c(O)c3c(=O)c2OC)cc1O [Centaurein, centaurein]",–,highly significant increase
